# Molecular target: T1, human PAD4 (Homo sapiens, UniProt Q9UM07)
# T1 construct: human PAD4 (NM_012387), A2-P663, was PCR amplified; His-SUMO (N, cleaved yes); made in house; host or cells: E. coli BL21(DE3)
# Test: In vitro PAD4 BAEE biochemical assay
# Conditions: BAEE substrate 3 mM, 5 nM PAD4, 2 mM calcium chloride; geometric mean of multiple experiments
# In short: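 Assay was run at 25 °C using 3 mM BAEE and 5 nM human PAD4 after a 30 min compound preincubation; ammonia produced over 2 h was quantified by OPA-derived fluorescence. Full inhibition was defined by 50 µM BB-Cl-Amidine, and IC50 came from variable-slope nonlinear regression.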
# T1 sequence (Q9UM07 2-663): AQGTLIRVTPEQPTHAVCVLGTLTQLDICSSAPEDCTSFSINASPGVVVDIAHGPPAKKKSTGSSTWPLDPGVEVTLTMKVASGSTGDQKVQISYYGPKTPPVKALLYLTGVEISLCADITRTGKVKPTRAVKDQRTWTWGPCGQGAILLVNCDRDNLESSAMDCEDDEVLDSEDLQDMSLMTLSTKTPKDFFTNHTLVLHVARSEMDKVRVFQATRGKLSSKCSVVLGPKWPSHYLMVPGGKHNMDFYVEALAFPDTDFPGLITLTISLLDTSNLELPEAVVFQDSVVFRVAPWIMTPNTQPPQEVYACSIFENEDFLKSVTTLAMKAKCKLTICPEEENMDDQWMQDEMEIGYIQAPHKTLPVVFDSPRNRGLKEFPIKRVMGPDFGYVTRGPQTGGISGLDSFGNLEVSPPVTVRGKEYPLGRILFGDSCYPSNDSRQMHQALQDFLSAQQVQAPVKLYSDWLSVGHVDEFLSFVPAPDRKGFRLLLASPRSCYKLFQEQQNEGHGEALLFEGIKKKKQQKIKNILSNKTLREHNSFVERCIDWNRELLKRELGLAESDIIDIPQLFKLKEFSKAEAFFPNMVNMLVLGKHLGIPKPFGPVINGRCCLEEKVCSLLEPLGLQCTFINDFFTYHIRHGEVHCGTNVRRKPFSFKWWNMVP
row,SMILES,IC50
1,"COc1cc(C(=O)N2[C@H]3CC[C@@H]2[C@H](N)C3)cc2nc(-c3cc4ccc5nc4n3CCCCCCNC(=O)c3ncccc3-5)n(C)c12 [Example 91, 17-[5-[(1˜{R},2˜{R},4˜{S})-2-amino-7-azabicyclo[2.2.1]heptane-7-carbonyl]-7-methoxy-1-methyl-benzimidazol-2-yl]-6,9,16,22-tetrazatetracyclo[14.5.2.0^{2,7}.0^{19,23}]tricosa-1(22),2,4,6,17,19(23),20-heptaen-8-one]",82 nM
2,"COc1cc(C(=O)N2CCC[C@@H](N)C2)cc2nc(-c3cc4ccc5cc4n3CCCCCCC(C)(C)C(=O)Nc3ncccc3-5)n(C)c12 [Example 53, 18-[5-[(3~{R})-3-aminopiperidine-1-carbonyl]-7-methoxy-1-methyl-benzimidazol-2-yl]-10,10-dimethyl-6,8,17-triazatetracyclo[15.5.2.0^{2,7}.0^{20,24}] tetracosa-1(23),2,4,6,18,20(24),21-heptaen-9-one]",283 nM
3,"COc1cc(C(=O)N2CC[C@@H](OC(F)F)[C@@H](N)C2)cc2nc(-c3cc4ccc5nc4n3CCCCCc3cc4ccccc4nc3C(=O)N(C)[C@@H]5C)n(C)c12 [Example 736, (2~{R})-21-[5-[(3~{S},4~{R})-3-amino-4-(difluoromethoxy)piperidine-1-carbonyl]-7-methoxy-1-methyl-benzimidazol-2-yl]-2,3-dimethyl-3,6,20,26-tetrazapentacyclo[18.5.2.0^ {5,14}.0^{7,12}.0^{23,27}] heptacosa-1(26),5(14), 6,8,10,12,21,23(27),24-nonaen-4-one]",304 nM
4,"COc1cc(C(=O)N2CCC[C@@H](N)C2)cc2nc(-c3cc4ccc5cc4n3CCCCCCC3(CC3)C(=O)N[C@@H]5C)n(C)c12 [Example 155, (11~{R})-17-[5-[(3~{R})-3-aminopiperidine-1-carbonyl]-7-methoxy-1-methyl-benzimidazol-2-yl]-11-methyl-spiro[1,10-diazatricyclo[10.5.2.0^{15,18}]nonadeca-12(19),13,15(18),16-tetraene-8,1′-cyclopropane]-9-one]",77 nM
5,"COc1cc(C(=O)N[C@H]2CNCC[C@@H]2F)cc2nc(-c3cc4ccc5nc4n3CCCCCCC(C)(C)C(=O)N[C@@H]5C)n(C)c12 [Example 75, ~{N}-[(3~{S},4~{S})-4-fluoro-3-piperidyl]-7-methoxy-1-methyl-2-[(11~{R})-8,8,11-trimethyl-9-oxo-1,10,19-triazatricyclo[10.5.2.0^{15,18}]nonadeca-12(19),13,15(18),16-tetraen-17-yl]benzimidazole-5-carboxamide]",103 nM
6,"C[C@H]1NC(=O)c2ccccc2CC[C@H]2C[C@@H]2Cn2c(-c3nc4cc(C(=O)N[C@H]5CNCC[C@@H]5F)c(F)cc4n3C)cc3ccc1nc32 [Example 351, 6-fluoro-~{N}-[(3~{S},4~{S})-4-fluoro-3-piperidyl]-1-methyl-2-[(3~{S},5~{S),16~{R})-16-methyl-14-oxo-1,15,24-triazapentacyclo[15.5.2.0^{3,5}.0^{8,13}.0^ {20,23}]tetracosa-8,10,12,17(24),18,20(23),21-heptaen-22-yl]benzimidazole-5-carboxamide]",97 nM
7,"COc1cc(C(=O)N[C@H]2CNCC[C@@H]2F)cc2nc(-c3cc4ccc5nc4n3CCCCC[C@@]3(C)C[C@@H]3C(=O)N[C@@H]5C)n(C)c12 [Example 617, 2-[(2~{R},5~{S},7~{S})-2,7-dimethyl-4-oxo-3,13,19-triazatetracyclo[11.5.2.0^ {5,7}.0^{16,20}]icosa-1(19),14,16(20),17-tetraen-14-yl]-~{N}-[(3~ {S},4~{S})-4-fluoro-3-piperidyl]-7-methoxy-1-methyl-benzimidazole-5-carboxamide]",1120 nM
8,"COc1cc(C(=O)N2[C@H]3CC[C@@H]2[C@H](N)C3)cc2nc(-c3cc4ccc5nc4n3CCCCCCC(=O)Nc3ccncc3-5)n(C)c12 [Example 90, 17-[5-[(1~{R},2~{R},4~{S})-2-amino-7-azabicyclo[2.2.1]heptane-7-carbonyl]-7-methoxy-1-methyl-benzimidazol-2-yl]-4,8,16,22-tetrazatetracyclo[14.5.2.0^{2,7}.0^{19,23}] tricosa-1(22),2,4,6,17,19(23),20-heptaen-9-one]",497 nM
9,"CN[C@H]1CN(C(=O)c2cc(OC)c3c(c2)nc(-c2cc4ccc5nc4n2CCCCCCC(C)(C)C(=O)N[C@@H]5C)n3C)CC[C@H]1OC [Example 105, (11~{R})-17-[7-methoxy-5-[(3~{S},4~{R})-4-methoxy-3-(methylamino)piperidine-1-carbonyl]-1-methyl-benzimidazol-2-yl]-8,8,11-trimethyl-1,10,19-triazatricyclo[10.5.2.0^{15,18}]nonadeca-12(19),13,15(18),16-tetraen-9-one]",27400 nM
10,"COc1cc(C(=O)N2CC[C@@H](OC(F)F)[C@@H](N)C2)cc2nc(-c3cc4ccc5nc4n3CCCCCCC3(COC3)C(=O)N[C@@H]5C)n(C)c12 [Example 613, (11~{R})-17-[5-[(3~{S},4~{R})-3-amino-4-(difluoromethoxy)piperidine-1-carbonyl]-7-methoxy-1-methyl-benzimidazol-2-yl]-11-methyl-spiro[1,10,19-triazatricyclo[10.5.2.0^ {15,18}]nonadeca-12,14,16,18-tetraene-8,3′-oxetane]-9-one]",108 nM

# Other lines, results leading:
row,IC50,SMILES
1,43 nM,"COc1cc(C(=O)N[C@H]2CNCC[C@@H]2F)cc2nc(-c3cc4ccc5nc4n3CCCCCC[C@@H](OC)C(=O)N[C@@H]5C)n(C)c12 [Example 621, ~{N}-[(3~{S},4~{S})-4-fluoro-3-piperidyl]-7-methoxy-2-[(8~{R},11~ {R})-8-methoxy-11-methyl-9-oxo-1,10,19-triazatricyclo[10.5.2.0^ {15,18}]nonadeca-12(19),13,15(18),16-tetraen-17-yl]-1-methyl-benzimidazole-5-carboxamide]"
2,61 nM,"COc1cc(C(=O)N2CCC[C@@H](N)C2)cc2nc(-c3cc4ccc5nc4n3CC3(CCCCCC(=O)N[C@@H]5C)CC3)n(C)c12 [Example 114, (11~{R})-17-[5-[(3~{R})-3-aminopiperidine-1-carbonyl]-7-methoxy-1-methyl-benzimidazol-2-yl]-11-methyl-spiro[1,10,19-triazatricyclo[10.5.2.0^{15,18}]nonadeca-12(19),13,15(18),16-tetraene-3,1′-cyclopropane]-9-one]"
3,43 nM,"CO[C@H]1C[C@@H]1n1c(-c2cc3ccc4nc3n2CC(F)(F)CCC[C@@H]2C[C@H]2C(=O)N[C@@H]4C)nc2cc(C(=O)N3C[C@H](N)[C@@H]4CC[C@H]3C4)cc(F)c21 [Example 470, (2~{R},5~{R},7~{R})-14-[5-[(1~{S},4~{R},5~{R})-4-amino-2-azabicyclo[3.2.1]octane-2-carbonyl]-7-fluoro-1-[(1~{S},2~{S})-2-methoxycyclopropyl]benzimidazol-2-yl]-11,11-difluoro-2-methyl-3,13,19-triazatetracyclo[11.5.2.0^{5,7}.0^{16,20}] icosa-1(18),14,16,19-tetraen-4-one]"
4,13 nM,"C[C@@H]1c2ccc3cc(-c4nc5cc(C(=O)N6CCC[C@@H](N)[C@H]6C)cc(F)c5n4C4CC4)n(c3n2)CCCCCc2nc3ccccc3cc2C(=O)N1C [Example 832, (2~{R})-21-[5-[(2~{R},3~{R})-3-amino-2-methyl-piperidine-1-carbonyl]-1-cyclopropyl-7-fluoro-benzimidazol-2-yl]-2,3-dimethyl-3,13,20,26-tetrazapentacyclo[18.5.2.0^ {5,14}.0^{7,12}.0^ {23,27}]heptacosa-1(26), 5(14),6,8,10,12,21,23(27), 24-nonaen-4-one]"
5,38 nM,"C[C@H]1NC(=O)c2ccc(Cl)nc2CCCC(F)(F)Cn2c(-c3nc4cc(C(=O)N5C[C@H](N)[C@@H]6CC[C@H]5C6)cc(F)c4n3C3CC3)cc3ccc1nc32 [Example 814, (2~{R})-17-[5-[(1~{S), 4~{R},5~{R})-4-amino-2-azabicyclo[3.2.1]octane-2-carbonyl]-1-cyclopropyl-7-fluoro-benzimidazol-2-yl]-8-chloro-14,14-difluoro-2-methyl-3,9,16,22-tetrazatetracyclo[14.5.2.0^ {5,10).0^{19,23}]tricosa-1(21),5(10),6,8,17,19,22-heptaen-4-one]"
6,75 nM,"COc1cc(C(=O)N2CCC[C@@H](N)C2)cc2nc(-c3cc4ccc5nc4n3CCC/C=C/C[C@@](C)(C(F)(F)F)C(=O)N[C@@H]5C)n(C)c12 (single isomer, unassigned) [Example 2, (5˜{E},8˜{R},11˜{R})-17-[5-[(3˜{R})-3-aminopiperidine-1-carbonyl]-7-methoxy-1-methyl-benzimidazol-2-yl]-8,11-dimethyl-8-(trifluoromethyl)-1,10,19-triazatricyclo[10.5.2.0^{15,18}]nonadeca-5,12(19),13,15(18),16-pentaen-9-one]"
7,25 nM,"C[C@H]1NC(=O)c2cnc(Cl)cc2CCCCCn2c(-c3nc4cc(C(=O)N5C[C@H](N)[C@@H]6CC[C@H]5C6)cc(F)c4n3C3CC3)cc3ccc1nc32 [Example 810, (2~{R})-17-[5-[(1~{S),4~{R},5~ {R})-4-amino-2-azabicyclo [3.2.1]octane-2-carbonyl]-1-cyclopropyl-7-fluoro-benzimidazol-2-yl]-8-chloro-2-methyl-3,7,16,22-tetrazatetracyclo[14.5.2.0^ {5,10}.0^{19,23}] tricosa-1(21),5(10),6,8,17,19, 22-heptaen-4-one]"
8,37 nM,"COc1cc(C(=O)N2[C@H]3CC[C@@H]2[C@H](N)C3)cc2nc(-c3cc4ccc5nc4n3CCCCCCCC(=O)NC5C3CC3)n(C)c12 (stereo partly drawn) [Example 259, 17-[5-[(1˜{R},2˜{R},4˜{S})-2-amino-7-azabicyclo[2.2.1]heptane-7-carbonyl]-7-methoxy-1-methyl-benzimidazol-2-yl]-11-cyclopropyl-1,10,19-triazatricyclo[10.5.2.0^{15,18}]nonadeca-12(19),13,15(18),16-tetraen-9-one]"

# — patent US11976083B2, “Inhibitors of peptidylarginine deiminases” (Gilead Sciences, Inc., priority 2020, dated 2024)
